Laboratory results taken from patent US4937263A, “Antihypercholesterolemic compounds” (Merck & Co., Inc., priority 1989, dated 1990).

Test system: HMG-CoA reductase
Test: HMG-CoA Reductase Inhibition Assay (in vitro, intrinsic inhibition)
Assay type: biochemical
Settings: IC50 of test compound compared with compactin determined simultaneously, compactin assigned 100; tested as sodium salt of dihydroxy acid form; solubilized rat liver microsomal enzyme
Procedure: The intrinsic HMG-CoA reductase inhibition activity of the claimed compounds is measured in the in vitro protocol published in J. Med. Chem., 28, p. 347-358 (1985) and described below:
Male Holtzman Sprague-Dawley rats (225-250 g) were kept on reversed lighting and fed Purina rat chow containing 3% cholestyramine for 7 days preceding their sacrifice by CO2 asphyxiation. Livers were removed 6 hours into the dark cycle and used immediately to prepare microsomes. HMG-CoA reductase was solubilized from the freshly prepared microsome by the method of Heller and Shrewsbury [J. Biol. Chem., 1976, 251, 3815] and purified through the second ammonium sulfate precipitation step as described by Kleinsek et al. [Proc. Natl. Acad. Sci. U.S.A., 1977, 74, 1431]. The enzyme preparation was tested for HMG-CoA reductase potency and diluted with 100 mM phosphate buffer (pH 7.2) so that 100 μl of the enzyme solution, when added to the assay control, gave a value of 50,000-60,000 dpm. The enzyme preparation was stored at -80° C.
The assay is essentially the procedure of Shefer et al. [J. Lipid Res., 1972, 13, 402]. The complete assay medium contained the following in a total volume of 0.8 ml: phosphate buffer, pH 7.2, 100 mM; MgCl2, 3 mM; NADP, 3 mM; glucose 6-phosphate, 10 mM; glucose-6-phosphate dehydrogenase, 3 enzyme units; reduced glutathione, 50 mM; HMG-CoA (glutaryl-3-^14 C., New England Nuclear), 0.2 mM (0.1 μCi); and partially purified enzyme stock solution, 100 μL.
Test compounds or compactin (after first being converted to the sodium salt of their dihydroxy acid form in situ by addition of IN NaOH (1 equivalent) were added to the assay system in 10 μL volumes at multiconcentration levels. After a 40 minute incubation at 37° C. with shaking and, exposure to air, the reaction was stopped by the addition of 0.4 mL of 8 N HCl. After an additional 30-minute incubation period at 37° C. to ensure the complete lactonization of mevalonic acid to mevalonolactone, 0.2 ml of the mixture was added to an 0.5×5.0 cm column containing 100-200 mesh Bio-Rex 5,chloride form (Bio-Rad), wetted with distilled water, as described by Alberts et al [J. Proc. Natl. Acad. Sci. U.S.A., 1980, 77, 3967]. The unreacted [^14 C]HMG-CoA was absorbed on the resin and the [^14 C]mevalonolactone was eluted with distilled water (2×1 ml) directly into 7-ml scintillation vials. Five milliliters of Aquasol-2 (New England Nuclear) was added to each vial, and radioactivity was measured in a Packard Tri Carb Prias scintillation counter. IC50 values were determined by plotting percentage inhibition against test compound concentration and fitting a straight line to the resulting data by using the least squares method. For estimation of relative inhibitory potencies, compactin was assigned a value of 100 and the IC50 value of the test compound was compared with that of compactin determined simultaneously.

SMILES | Relative Potency
C[C@H]1C=C2C=C[C@H](C)[C@H](CC[C@@H](O)C[C@@H](O)CC(=O)O)[C@H]2[C@@H](OC(=O)C(C)(C)c2ccc(CO)cc2)C1 | 36
C[C@H]1C=C2C=C[C@H](C)[C@H](CC[C@@H](O)C[C@@H](O)CC(=O)O)[C@H]2[C@@H](OC(=O)C(C)(C)c2ccc(O)cc2)C1 | 217
C[C@H]1C=C2C=C[C@H](C)[C@H](CC[C@@H](O)C[C@@H](O)CC(=O)O)[C@H]2[C@@H](OC(=O)C(C)(C)Cc2ccc(O)cc2)C1 | 280
CCOc1ccc(C(C)(C)C(=O)O[C@H]2C[C@@H](C)C=C3C=C[C@H](C)[C@H](CC[C@@H](O)C[C@@H](O)CC(=O)O)[C@H]32)cc1 | 47
C[C@H]1C=C2C=C[C@H](C)[C@H](CC[C@@H](O)C[C@@H](O)CC(=O)O)[C@H]2[C@@H](OC(=O)C(C)(C)Cc2cc(O)cc(O)c2)C1 | 333
C[C@H]1C=C2C=C[C@H](C)[C@H](CC[C@@H](O)C[C@@H](O)CC(=O)O)[C@H]2[C@@H](OC(=O)C(C)(C)c2cccc(O)c2)C1 | 197
COc1ccc(C(C)(C)C(=O)O[C@H]2C[C@@H](C)C=C3C=C[C@H](C)[C@H](CC[C@@H](O)C[C@@H](O)CC(=O)O)[C@H]32)cc1 | 144
C[C@H]1C=C2C=C[C@H](C)[C@H](CC[C@@H](O)C[C@@H](O)CC(=O)O)[C@H]2[C@@H](OC(=O)C(C)(C)Cc2ccccc2)C1 | 173
C[C@H]1C=C2C=C[C@H](C)[C@H](CC[C@@H](O)C[C@@H](O)CC(=O)O)[C@H]2[C@@H](OC(=O)C(C)(C)c2ccccc2)C1 | 88
C[C@H]1C=C2C=C[C@H](C)[C@H](CC[C@@H](O)C[C@@H](O)CC(=O)O)[C@H]2[C@@H](OC(=O)C(C)(C)CCc2ccccc2)C1 | 100
C[C@H]1C=C2C=C[C@H](C)[C@H](CC[C@@H](O)C[C@@H](O)CC(=O)O)[C@H]2[C@@H](OC(=O)C(C)(C)c2ccc(O)c(F)c2)C1 | 217
